Earlier results as cited in patent publication US5849263A, “Pharmaceutical compositions containing alkylaryl polyether alcohol polymer” (priority 1996, dated 1998).

Details: in vivo

## CCCCCCCCCCCCCCCC(=O)OCC(COP(=O)([O-])OCC[N+](C)(C)C)OC(=O)CCCCCCCCCCCCCCC (stereo not shown) [DPPC, diphalmitoylphosphatidyl choine]
  undesired features / side effects of formulation: mucus plugging of the airways and obstruction of ventilator circuits
